The subject of the assay is E. coli wild-type GFP strain growth, fluorescence, 24 h. Kind of assay: wild-type E. coli growth inhibition versus H69 humanized strain – H69 mutant RFP, wild-type GFP, cherry-pick, dose response (AID 977621).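 Further: wild-type GFP and H69 mutant RFP strains grown together 50/50 in each well.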
Setting [1] is: E. coli mixed culture, 24 h, measured here: total growth OD600, test 2.

The structures appear in SMILES notation. Inconclusive results are not listed. Active and inactive are the calls of the source.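 How the source made its calls: active means Wild-type ribosome reporter drop at least double the humanized mutant ribosome reporter drop, growth loss under a set limit; inconclusive means no clear call, values can overlap the other calls; inactive means the rest.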

A word on the AC50: it is the concentration at which the activity in the assay is half-maximal.

For the compound `Cc1cc(NC(=O)CSc2nccn2-c2cccc(C)c2C)no1`, the AC50 was > 100 µM (inactive). This compound returned an AC50 under setting [1] above 100 µM.

Take `Fc1ccc(-n2cc(CNCCc3cccnc3)c(-c3ccccc3Cl)n2)cc1`: the AC50 is > 100 µM (inactive). Moreover, under setting [1], the AC50 came out at 27.8 µM.

`O=C(CN1CCN(c2ccc(O)cc2)CC1)Nc1cc(S(=O)(=O)N2CCCC2)ccc1Cl`: the AC50 is > 100 µM (inactive).

`CCOc1ncccc1C(=O)OCC(=O)NCCCc1ccccc1` showed an AC50 under setting [1] above 100 µM.

As to `COc1cccc(NC(=O)C2CCC(CNS(=O)(=O)c3cccc4cccnc34)CC2)c1` (stereo unspecified), the AC50 was > 100 µM (inactive).

In the case of `COc1ccccc1C1CCN(Cc2cccc([N+](=O)[O-])c2)CC1`, the AC50 is > 100 µM (inactive). The compound further gave an AC50 under setting [1] above 100 µM.

Take `O=C(Cc1coc2cc(O)ccc12)N1CCN(S(=O)(=O)c2ccc(Br)cc2)CC1`: the AC50 is > 100 µM (inactive). Moreover, the AC50 under setting [1] was 42.2 µM.

Consider `CCn1nnc(NC(=O)c2ccc([N+](=O)[O-])o2)n1`, for which the AC50 was > 100 µM (inactive).

For the compound `Cc1ccc(C#N)c(SCc2ccccc2F)n1`, the AC50 was > 100 µM (inactive). Also, the AC50 under setting [1] came to 34.2 µM.

On to `CN(CCOc1ccccc1)C(=O)c1ccc(OC2CCN(C(=O)C3CC3)CC2)cc1`, for which the AC50 is > 100 µM (inactive).

Take `O=C(Cc1cccnc1)N1CC(=O)N2[C@H](C1)[C@@H](c1ccc(C3=CCCCC3)cc1)[C@@H]2CO`: the AC50 is > 100 µM (inactive). Under setting [1], this compound registered an AC50 above 100 µM.

In the case of `O=C(Cc1cccc2ccccc12)Nc1ccccc1C(=O)O`, under setting [1], the AC50 amounted to 50.2 µM.

As for `Cc1ccc(S(=O)(=O)NCc2c(-c3ccccc3)noc2C)cc1`, under setting [1], the AC50 was above 100 µM.

With `COc1ccc(Cl)cc1NC(=O)C1Cc2ccccc2CN1S(C)(=O)=O` (stereo unspecified), the AC50 is > 100 µM (inactive).

`CCCC(=O)N(CCc1ccc(OC)cc1)Cc1nc2ccccc2c(=O)[nH]1`: the AC50 was > 100 µM (inactive).

Regarding `O=C(NCc1cccnc1)C1CCN(S(=O)(=O)c2cc([N+](=O)[O-])ccc2Cl)CC1`, the half-maximal activity concentration (AC50) under setting [1] was above 100 µM.

For `Cc1onc(-c2ccccc2)c1-c1nnc(-c2ccccc2C(F)(F)F)o1`, the AC50 is > 100 µM (inactive).

On to `Cc1ccc(CNC(=O)c2ccc(Br)o2)cc1`, for which the AC50 was > 100 µM (inactive).

In the case of `CCc1ccc(C(=O)Nc2cccnc2Oc2ccc(Cl)cc2)cc1`, the AC50 under setting [1] was above 100 µM.

Consider `COc1cccc(OCCNS(=O)(=O)c2ccccc2[N+](=O)[O-])c1`, for which the AC50 was > 100 µM (inactive).

Take `O=C1c2ccccc2S(=O)(=O)c2cc(N3CCC(C(=O)N4CCCCC4)CC3)ccc21`: the AC50 was > 100 µM (inactive).

For `NC(=O)CSc1nc2cc([N+](=O)[O-])ccc2n1-c1cccc(C(F)(F)F)c1`, the AC50 is > 100 µM (inactive).

For the compound `CC(=O)c1cccc(NC(=O)COC(=O)C2CCCN2C(=O)c2cccs2)c1` (stereo unspecified), the AC50 was > 100 µM (inactive).

As for `O=C(O)c1ccc(Oc2ccc([N+](=O)[O-])cc2)c([N+](=O)[O-])c1`, the AC50 is > 100 µM (inactive).

With `CCc1ccc2nc(N(CCCN(C)C)C(=O)c3ccc4c(c3)OCCO4)sc2c1`, the AC50 was > 100 µM (inactive).

`O=C1CSC(c2cccnc2)N1Cc1ccc(Cl)c(Cl)c1` (stereo unspecified): the AC50 is > 100 µM (inactive). The same compound had an AC50 under setting [1] above 100 µM.

Under setting [1], `Cc1cccc(-c2ccc([C@@H]3[C@@H](CO)N4CCCCN(S(=O)(=O)c5ccccc5C)C[C@H]34)cc2)c1` gave a half-maximal activity concentration (AC50) of 48.8 µM.

For the compound `O=[N+]([O-])c1ccc(N2CCOCC2)c2c1no[n+]2[O-]`, the AC50 is > 100 µM (inactive).

On to `CC1CCCC(NC(=O)COC(=O)[C@@H]2CC(O)CN2S(=O)(=O)c2ccc3c(c2)OCCO3)C1C` (stereo partly specified), for which, under setting [1], the AC50 is above 100 µM.

As to `Cc1ccc(S(=O)(=O)Nc2cccc(-c3ccc(N4CCCCCC4)nn3)c2)cc1`, the AC50 is > 100 µM (inactive). The compound further had an AC50 under setting [1] of 28.9 µM.

`COc1cccc(C(=O)NC(C)c2ccc(Br)cc2)c1` (stereo unspecified) registered an AC50 under setting [1] above 100 µM.

Consider `Cc1ccccc1OCC(O)Cn1c(NCc2ccco2)nc2c1c(=O)n(C)c(=O)n2C` (stereo unspecified), for which the AC50 is > 100 µM (inactive). This compound also yielded a half-maximal activity concentration (AC50) under setting [1] above 100 µM.

As to `COCc1cc(C)nc(SCC[N+](C)(C)CC(=O)c2ccc(Br)cc2)c1C#N`, the AC50 was > 100 µM (inactive).

As to `Cc1ccccc1-c1cc(C(=O)NCc2cccs2)n(CC2CC(c3cccnc3)=NO2)n1` (stereo unspecified), the AC50 was > 100 µM (inactive). For the same compound, the AC50 under setting [1] was above 100 µM.

`COc1cc(OC)c(NS(=O)(=O)c2cccc(C(=O)OCC(=O)NCC3CCCO3)c2)cc1Cl` (stereo unspecified) returned an AC50 under setting [1] above 100 µM.

As for `Cc1cccc(C)c1OCc1n[nH]c(=S)n1-c1ccccc1`, the AC50 is > 100 µM (inactive). Under setting [1], this compound yielded an AC50 of 44.8 µM.

Consider `Cc1ccc(C)c(N(CC(=O)NC2CCCC2)C(=O)c2oc(C(C)(C)C)cc2C)c1`, for which the AC50 is > 100 µM (inactive). This compound also displayed an AC50 under setting [1] above 100 µM.

In the case of `Cc1ccc(NC(=O)c2ccc([N+](=O)[O-])o2)c(C)c1`, the AC50 is > 100 µM (inactive).

As for `C=CCn1c(CCSCc2ccc(OC)c(C)c2)n[nH]c1=S`, the AC50 is > 100 µM (inactive). In addition, the AC50 under setting [1] came to 33.6 µM.

On to `CCCn1c(NCc2ccc3c(c2)OCO3)nc2ccccc21`, for which the AC50 is > 100 µM (inactive). The same compound yielded an AC50 under setting [1] of 49.9 µM.

As for `COc1ccccc1N(C)S(=O)(=O)c1ccc(C(=O)NC(C)c2ccccc2)cc1` (stereo unspecified), the AC50 was > 100 µM (inactive).

In the case of `CCOc1ccc(OCC)c(NC(=O)CSc2nc3cccnc3n2C)c1`, the AC50 was > 100 µM (inactive). The AC50 under setting [1] is 36.6 µM.

As to `NS(=O)(=O)c1cccc(NC(=O)CSc2nnc(-c3ccccc3F)n2C2CC2)c1`, the AC50 is > 100 µM (inactive).

For the compound `COc1ccccc1Cn1c(=S)[nH]c2ccccc2c1=O`, the AC50 was > 100 µM (inactive).

As to `O=C(CN1CCN(S(=O)(=O)c2ccc(Cl)cc2)CC1)Nc1ccc2c(c1)CCC2`, under setting [1], the AC50 is above 100 µM.

Compound `N#Cc1ccc(-c2ccc(C3[C@H]4CNC[C@@H]3N4S(=O)(=O)c3ccc(-c4ccccc4)cc3)cc2)cc1` (stereo partly specified) yielded an AC50 under setting [1] above 100 µM.

`CCOC(=O)c1[nH]c2ccccc2c1NC(=O)c1ccc(Br)o1`: the AC50 was > 100 µM (inactive).

In the case of `O=C(Nc1cccc(Cl)c1)N1C[C@H]2[C@@H](c3ccccc31)[C@@H](CO)N2C(=O)c1ccncc1`, the AC50 was > 100 µM (inactive).

As to `Nc1nn(-c2ccccc2)c2ccc([N+](=O)[O-])cc12`, the AC50 is > 100 µM (inactive).

Take `Cc1nn(CC(=O)OCCOc2ccc(Br)cc2)c(C)c1[N+](=O)[O-]`: the AC50 under setting [1] is above 100 µM.

For `C=CCn1c(SCc2n[nH]c(=S)n2-c2ccccc2)nnc1-c1ccccc1`, the AC50 is > 100 µM (inactive).

For the compound `CCCNC(=O)c1cc(C2CCCN(S(=O)(=O)c3cccc4cccnc34)C2)on1` (stereo unspecified), the AC50 is > 100 µM (inactive).

Under setting [1], `CSc1ccccc1NC(=O)c1ccccc1N(Cc1ccccc1)S(C)(=O)=O` showed an AC50 above 100 µM.

For `Cc1nc(N2CCCCC2)sc1C(=O)c1ccc(SCCO)c([N+](=O)[O-])c1`, the AC50 was > 100 µM (inactive). The compound also came in with an AC50 under setting [1] of 34.5 µM.

Consider `O=C(NCCCCc1ccccc1)c1cccc(NC(=O)C2CCCCC2)c1`, for which the AC50 was > 100 µM (inactive). Under setting [1], this compound registered a concentration at half-maximal activity (AC50) of 46.8 µM.

Take `O=S(=O)(Nc1cccc(-c2ccc(N3CCCCCC3)nn2)c1)c1ccc(F)cc1`: the AC50 was > 100 µM (inactive).

With `Nc1ccccc1Sc1ccc(C(F)(F)F)cc1[N+](=O)[O-]`, the AC50 is > 100 µM (inactive).

In the case of `Fc1cccc(Cl)c1CSc1ccc(-c2ccco2)nn1`, the AC50 under setting [1] was above 100 µM.

Where the note is “measured here: total growth OD600, test 2”, `O=C1CC(=O)N(Cc2ccccc2)C(=O)N1CCCCCCN1C(=O)CC(=O)N(Cc2ccccc2)C1=O` registered an AC50 above 100 µM.

`CC(C)=C(c1ccc(Cl)cc1)c1c(N)ncnc1N`: the AC50 was > 100 µM (inactive).

Take `Cc1ccc(OCc2nc(C#N)c(N3CCCCC3)o2)cc1`: the AC50 is > 100 µM (inactive). This compound also had an AC50 under setting [1] of 42.7 µM.

As to `CCCCCCCNC(=O)c1ccc(N2CCC3(CC2)OCCO3)c([N+](=O)[O-])c1`, the AC50 is > 100 µM (inactive). The AC50 under setting [1] worked out at 35.4 µM.

Regarding `O=C(c1cc(COc2ccc(F)cc2F)on1)N1CCCC(c2ccccc2)C1` (stereo unspecified), the AC50 is > 100 µM (inactive). Moreover, under setting [1], the AC50 came out at 14.5 µM.

As to `C[C@@H]1CN([C@@H](C)CO)C(=O)c2cc(NS(=O)(=O)c3ccccc3)ccc2O[C@@H]1CN(C)Cc1ccc(C(=O)Nc2ccccc2N)cc1`, under setting [1], the AC50 is 50.6 µM.

In the case of `O=C(CCCOc1ccccc1)NCCc1nc2ccccc2[nH]1`, the AC50 is > 100 µM (inactive).

In the case of `COc1ccc(C(=O)C2CCCN(C(=O)c3noc4c3CCCC4)C2)cc1F` (stereo unspecified), the AC50 is > 100 µM (inactive).

Regarding `O=C(Nc1ccc2c(c1)OCO2)c1ccc([N+](=O)[O-])cc1[N+](=O)[O-]`, the AC50 was > 100 µM (inactive).

On to `CCc1ccc(CN2CCCC(CNS(=O)(=O)c3ccc(OC)cc3)C2)cc1` (stereo unspecified), for which the AC50 under setting [1] is above 100 µM.

Take `O=C(N[C@@H](Cc1ccccc1)C(=O)OCc1ccccc1)c1nc[nH]c1C(=O)NC1CCNCC1`: the AC50 is > 100 µM (inactive).

On to `O=C(O)CC1(CC(=O)NCc2ccc(-c3cccs3)cc2)CCCCC1`, for which the AC50 is > 100 µM (inactive).

As to `O=C(CCCOc1ccc(Cl)cc1Cl)Nc1ccccc1C(=O)O`, the AC50 under setting [1] stood at 33.7 µM.

For the compound `Cc1ccc(NC(=O)C2CCCN(c3ncnc4c3nc3n4CCCCC3)C2)cc1Cl` (stereo unspecified), under setting [1], the AC50 is above 100 µM.

Consider `CCCCC(=O)N1CCN(c2nc3ccc(Br)cc3s2)CC1`, for which the AC50 is > 100 µM (inactive). Besides, under setting [1], the AC50 was 31 µM.

In turn, `CN(CCOc1ccccc1)S(=O)(=O)c1ccccc1C#N` returned an AC50 under setting [1] above 100 µM.

In the case of `Cc1c(Cc2ccccc2)sc(NC(=O)C(C)(C)C)c1C(N)=O`, the AC50 was > 100 µM (inactive). Under setting [1], the AC50 worked out at 50.6 µM.

`O=C(Cn1cc(C(=O)c2ccco2)c2ccccc21)Nc1ccccc1F`: the AC50 is > 100 µM (inactive).

Consider `CCOCCCNC(=O)C(NC(=O)c1ccccc1O)c1ccc(C)cc1` (stereo unspecified), for which, under setting [1], the AC50 was above 100 µM.

With `Cc1ccc2oc(C(=O)N(CCO)Cc3ccccc3)c(C)c2c1`, the AC50 was > 100 µM (inactive). Further, the AC50 under setting [1] was determined as 32.4 µM.

Values taken from PubChem BioAssay AID977621 (Broad Institute, 2014).
